Results as given in patent US20260216294A1, “BETA 2-ADRENERGIC RECEPTOR AGONISTS FOR TREATMENT OR PREVENTION OF MUSCLE WASTING” (ATROGI AB, priority 2023, published 2026).

Columns and labels:
L6-myotubes [1] = assay: Measurement of intracellular cAMP levels in differentiated L6-myotubes (Biological Example 3); assay type: cell-based; conditions: 0.25 h
In short: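 Intracellular cAMP quantified by AlphaScreen after ethanol extraction and lysis of L6 myotubes. Cells were serum-starved overnight, then exposed for 15 min to compound (final 1×10^−5 M) or isoprenaline in IBMX-containing (1 mM) HBSS buffer, pH 7.4.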

L6-myotubes [2] = assay: Glucose uptake in differentiated L6-myotubes (Biological Example 2); assay type: cell-based; conditions: read-out: Biological example 2 (GU)
In short: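 Uptake was quantified as radioactivity in 0.2 M NaOH lysates after a 10 min pulse of 50 nM ^3H-2-deoxyglucose. The pulse followed two agonist exposures at 1×10^−5 M final (isoprenaline or test compound): 1 h 40 min, then 20 min in glucose-free medium after washing. L6 myotubes had been starved overnight in medium with 0.5% fatty-acid-free BSA.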

[3] = intracellular cAMP in differentiated L6-myotubes, compound at 10 μM, activity relative to isoproterenol at 10 μM
[4] = glucose uptake in differentiated L6-myotubes, compound at 10 μM, activity relative to isoproterenol at 10 μM
[5] = intracellular cAMP, compound at 10 μM relative to isoproterenol at 10 μM
[6] = glucose uptake, compound at 10 μM relative to isoproterenol at 10 μM

## CN(C)C(=O)N[C@H]1CC[C@H](CC(C)(C)NC[C@H](O)c2cccc(F)c2)CC1 [Compound 430, (R)-2-{1,1-dimethyl-2-[(1r,4R)-4-(3,3-dimethylureido)cyclohexyl]ethylamino}-1-(m-fluorophenyl)-1-ethanol]
L6-myotubes [1]; [3]
  Emax at 10 µM: 50 to 75%
L6-myotubes [2]; [4]
  Emax at 10 µM: > 75%

## CC(C)(NC[C@H](O)c1cccc(F)c1)[C@H]1CC[C@@H](OCc2ccccc2)CC1 [Compound 280, (R)-1-(m-fluorophenyl)-2-{1-methyl-1-[(1s,4S)-4-(benzyloxy)cyclohexyl]ethylamino}-1-ethanol]
L6-myotubes [1]; [3]
  Emax at 10 µM: < 25%
L6-myotubes [2]; [4]
  Emax at 10 µM: > 75%

## CNS(=O)(=O)[C@H]1CC[C@@H](CC(C)(C)NC[C@H](O)c2cncc(F)c2)CC1 [Compound 495]
L6-myotubes [1]; [3]
  Emax at 10 µM: < 25%
L6-myotubes [2]; [4]
  Emax at 10 µM: 50 to 75%

## CC1(C)CCC[C@H]([C@@H](O)c2ccccc2Cl)N1 [Compound 163, (S)-[(R)-6,6-dimethyl-2-piperidyl](o-chlorophenyl)methanol]
L6-myotubes [1]; [5]
  Emax at 10 µM: < 25%
L6-myotubes [2]; [6]
  Emax at 10 µM: > 75%

## O[C@H](c1cccc(F)c1)[C@H]1CC[C@H](Cc2ccc(Cl)cc2)N1 [Compound 393, (R)-{(2R,5R)-5-[(p-chlorophenyl)methyl]-2-pyrrolidinyl}(m-fluorophenyl)methanol]
L6-myotubes [1]; [3]
  Emax at 10 µM: < 25%
L6-myotubes [2]; [4]
  Emax at 10 µM: > 75%

## CC(C)(C)NC[C@H](O)c1ccc(F)c(N)c1F [Compound 149, (R)-1-(3-amino-2,4-difluorophenyl)-2-(tert-butylamino)-1-ethanol]
L6-myotubes [1]; [5]
  Emax at 10 µM: 25 to 50%
L6-myotubes [2]; [6]
  Emax at 10 µM: > 75%

## CC(=O)N[C@H]1CC[C@H](C(C)(C)NC[C@H](O)c2cncc(F)c2)CC1 [Compound 346, N-[(1R,4r)-4-{1-[(R)-2-(5-fluoro-3-pyridyl)-2-hydroxyethylamino]-1-methylethyl}cyclohexyl] acetamide]
L6-myotubes [1]; [3]
  Emax at 10 µM: < 25%
L6-myotubes [2]; [4]
  Emax at 10 µM: > 75%

## CO[C@H]1CC[C@@H](CC(C)(C)NC[C@H](O)c2cncc(F)c2)CC1 [Compound 248, (R)-2-{1,1-dimethyl-2-[(1s,4S)-4-methoxycyclohexyl]ethylamino}-1-(5-fluoro-3-pyridyl)-1-ethanol]
L6-myotubes [1]; [3]
  Emax at 10 µM: < 25%
L6-myotubes [2]; [4]
  Emax at 10 µM: > 75%

## CCCCNC[C@H](O)c1cnc(N)nc1 [Compound 89, (R)-1-(2-amino-5-pyrimidinyl)-2-(butylamino)-1-ethanol]
L6-myotubes [1]; [5]
  Emax at 10 µM: < 25%
L6-myotubes [2]; [6]
  Emax at 10 µM: 50 to 75%

## CC1(C)CC[C@H]([C@H](O)c2cccc(O)c2)N1 [Compound 112, m-{(R)-[(R)-5,5-dimethyl-2-pyrrolidinyl] hydroxymethyl}phenol]
L6-myotubes [1]; [5]
  Emax at 10 µM: < 25%
L6-myotubes [2]; [6]
  Emax at 10 µM: > 75%

## COc1ccc(C[C@@H]2CC[C@H]([C@H](O)c3cncc(F)c3)N2)cc1 [Compound 378, (R)-{(2R,5S)-5-[(p-methoxyphenyl)methyl]-2-pyrrolidinyl}(5-fluoro-3-pyridyl)methanol]
L6-myotubes [1]; [3]
  Emax at 10 µM: < 25%
L6-myotubes [2]; [4]
  Emax at 10 µM: > 75%

## CC12CC(C1)[C@H]([C@H](O)c1cncc(F)c1)N2 [Compound 220, (R)-{(R)-1-methyl-2-azabicyclo[[2.1.1]]hex-3-yl}(5-fluoro-3-pyridyl)methanol]
L6-myotubes [1]; [3]
  Emax at 10 µM: < 25%
L6-myotubes [2]; [4]
  Emax at 10 µM: > 75%

## CCC[C@@H](C)NC[C@H](O)c1ccc(F)cc1 [Compound 52, (R)-2-[(R)-1-methylbutylamino]-1-(p-fluorophenyl)-1-ethanol]
L6-myotubes [1]; [5]
  Emax at 10 µM: < 25%
L6-myotubes [2]; [6]
  Emax at 10 µM: 50 to 75%

## CO[C@H]1CC[C@H](C[C@]2(C)CC[C@H]([C@@H](O)c3cccc(F)c3)N2)CC1 [Compound 363, (S)-[(2R,5S)-5-methyl-5-{[(1r,4S)-4-methoxycyclohexyl]methyl}-2-pyrrolidinyl](m-fluorophenyl)methanol]
L6-myotubes [1]; [3]
  Emax at 10 µM: < 25%
L6-myotubes [2]; [4]
  Emax at 10 µM: > 75%

## CCC[C@H]1CCCC[C@@H]([C@H](O)c2cncc(F)c2)N1 [Compound 234, (R)-[(2S,7S)-7-propyl-2-azepanyl](5-fluoro-3-pyridyl)methanol]
L6-myotubes [1]; [3]
  Emax at 10 µM: < 25%
L6-myotubes [2]; [4]
  Emax at 10 µM: > 75%

## CC1(C)CC[C@H]([C@@H](O)c2cccc(F)c2)N1 [Compound 109, (S)-[(R)-5,5-dimethyl-2-pyrrolidinyl](m-fluorophenyl)methanol]
L6-myotubes [1]; [5]
  Emax at 10 µM: < 25%
L6-myotubes [2]; [6]
  Emax at 10 µM: 25 to 50%

## CCCC(C)NCC(O)c1cccc(O)c1 (stereo not shown) [Compound 14, 1-(m-hydroxyphenyl)-2-(1-methylbutylamino)-1-ethanol]
L6-myotubes [1]; [5]
  Emax at 10 µM: < 25%
L6-myotubes [2]; [6]
  Emax at 10 µM: > 75%

## CC1(C)CCC[C@@H]([C@@H](O)c2ccccc2F)N1 [Compound 192, (S)-[(S)-6,6-dimethyl-2-piperidyl](o-fluorophenyl)methanol]
L6-myotubes [1]; [5]
  Emax at 10 µM: < 25%
L6-myotubes [2]; [6]
  Emax at 10 µM: 25 to 50%

## CC(C)(C)NC[C@H](O)c1cncc(O)c1 [Compound 100, 5-[(R)-2-(tert-butylamino)-1-hydroxyethyl]-3-pyridinol]
L6-myotubes [1]; [5]
  Emax at 10 µM: < 25%
L6-myotubes [2]; [6]
  Emax at 10 µM: > 75%

## CCCC(C)(C)NC[C@H](O)c1cccc(F)c1 [Compound 61, (R)-2-(1,1-dimethylbutylamino)-1-(m-fluorophenyl)-1-ethanol]
L6-myotubes [1]; [5]
  Emax at 10 µM: < 25%
L6-myotubes [2]; [6]
  Emax at 10 µM: > 75%

## CC1(NC[C@H](O)c2cccc(F)c2)CC1 [Compound 82, (R)-1-(m-fluorophenyl)-2-(1-methylcyclopropylamino)-1-ethanol]
L6-myotubes [1]; [5]
  Emax at 10 µM: < 25%
L6-myotubes [2]; [6]
  Emax at 10 µM: > 75%

## CC1(C)CC[C@H]([C@@H](O)c2cccc(O)c2)N1 [Compound 111, m-{(S)-[(R)-5,5-dimethyl-2-pyrrolidinyl] hydroxymethyl}phenol]
L6-myotubes [1]; [5]
  Emax at 10 µM: < 25%
L6-myotubes [2]; [6]
  Emax at 10 µM: 50 to 75%

## CC(C)(C[C@H]1CC[C@H](NS(=O)(=O)C2CC2)CC1)NC[C@H](O)c1cccc(F)c1 [Compound 496]
L6-myotubes [1]; [3]
  Emax at 10 µM: < 25%
L6-myotubes [2]; [4]
  Emax at 10 µM: 50 to 75%

## O[C@H](c1cccc(F)c1)C12CCC(CCc3ccc(Cl)cc3)(CC1)N2 [Compound 528, (R)-{4-[2-(p-chlorophenyl)ethyl]-7-azabicyclo[[2.2.1]]hept-1-yl}(m-fluorophenyl)methanol]
L6-myotubes [1]; [3]
  Emax at 10 µM: < 25%
L6-myotubes [2]; [4]
  Emax at 10 µM: < 25%

## CC1(C)CCC[C@H]([C@@H](O)c2cccc(O)c2)N1 [Compound 103]
L6-myotubes [1]; [5]
  Emax at 10 µM: < 25%
L6-myotubes [2]; [6]
  Emax at 10 µM: 25 to 50%

## CC1(C)CCC[C@H]([C@@H](O)c2cccc(Cl)c2)N1 [Compound 164]
L6-myotubes [1]; [5]
  Emax at 10 µM: < 25%
L6-myotubes [2]; [6]
  Emax at 10 µM: 50 to 75%

## O[C@@H](CNC[C@H]1CC[C@@H](OCc2ccccc2)CC1)c1cncc(F)c1 [Compound 263, (R)-1-(5-fluoro-3-pyridyl)-2-({[(1s,4S)-4-(benzyloxy)cyclohexyl]methyl}amino)-1-ethanol]
L6-myotubes [1]; [3]
  Emax at 10 µM: < 25%
L6-myotubes [2]; [4]
  Emax at 10 µM: > 75%

## CC(=O)N[C@H]1CC[C@@H](C[C@@H]2CC[C@H]([C@H](O)c3cccc(F)c3)N2)CC1 [Compound 484]
L6-myotubes [1]; [3]
  Emax at 10 µM: < 25%
L6-myotubes [2]; [4]
  Emax at 10 µM: 50 to 75%

## CN([C@H]1CC[C@@H](CC(C)(C)NC[C@H](O)c2cccc(F)c2)CC1)S(C)(=O)=O [Compound 498, (R)-2-{1,1-dimethyl-2-[(1s,4S)-4-(N-mesyl-N-methylamino)cyclohexyl]ethylamino}-1-(m-fluorophenyl)-1-ethanol]
L6-myotubes [1]; [3]
  Emax at 10 µM: < 25%
L6-myotubes [2]; [4]
  Emax at 10 µM: 25 to 50%

## CC(C)(C[C@H]1CC[C@@H](NS(C)(=O)=O)CC1)NC[C@H](O)c1cccc(C(F)(F)F)n1 [Compound 463]
L6-myotubes [1]; [3]
  Emax at 10 µM: < 25%
L6-myotubes [2]; [4]
  Emax at 10 µM: 50 to 75%

## CS(=O)(=O)N(Cc1ccccc1)[C@H]1CC[C@H](C[C@@H]2CC[C@H]([C@H](O)c3cccc(F)c3)N2)CC1 [Compound 502]
L6-myotubes [1]; [3]
  Emax at 10 µM: < 25%
L6-myotubes [2]; [4]
  Emax at 10 µM: < 25%

## CC(C)(CC[C@H]1CC[C@H](NS(C)(=O)=O)CC1)NC[C@H](O)c1cncc(F)c1 [Compound 362, (R)-2-{1,1-dimethyl-3-[(1r,4R)-4-(mesylamino)cyclohexyl]propylamino}-1-(5-fluoro-3-pyridyl)-1-ethanol]
L6-myotubes [1]; [3]
  Emax at 10 µM: < 25%
L6-myotubes [2]; [4]
  Emax at 10 µM: 50 to 75%

## C[C@H]1CC[C@@H]([C@H](O)c2cccc(O)c2)N1 (racemic) [Compound 40, Racemic mixture of m-{(R)-[(2S,5S)-5-methyl-2-pyrrolidinyl] hydroxymethyl} phenol and m-{(S)-[(2R,5R)-5-methyl-2-pyrrolidinyl] hydroxymethyl} phenol]
L6-myotubes [1]; [5]
  Emax at 10 µM: < 25%
L6-myotubes [2]; [6]
  Emax at 10 µM: 50 to 75%

## CCC[C@H]1CCC[C@H]([C@H](O)c2ccccc2F)N1 [Compound 93, (R)-[(2R,6S)-6-propyl-2-piperidyl](o-fluorophenyl)methanol]
L6-myotubes [1]; [5]
  Emax at 10 µM: < 25%
L6-myotubes [2]; [6]
  Emax at 10 µM: 25 to 50%

## CNS(=O)(=O)[C@H]1CC[C@H](CC(C)(C)NC[C@H](O)c2cncc(F)c2)CC1 [Compound 478, (R)-2-{1,1-dimethyl-2-[(1r,4R)-4-(methylaminosulfonyl)cyclohexyl]ethylamino}-1-(5-fluoro-3-pyridyl)-1-ethanol]
L6-myotubes [1]; [3]
  Emax at 10 µM: < 25%
L6-myotubes [2]; [4]
  Emax at 10 µM: 25 to 50%

## CC(C)(C[C@H]1CC[C@H](NC(=O)C(C)(C)C)CC1)NC[C@H](O)c1cccc(F)c1 [Compound 429]
L6-myotubes [1]; [3]
  Emax at 10 µM: 25 to 50%
L6-myotubes [2]; [4]
  Emax at 10 µM: > 75%

## CC(C)(CC[C@H]1CC[C@H](C(=O)O)CC1)NC[C@H](O)c1cccc(F)c1 [Compound 348, (1R,4r)-4-{3-[(R)-2-(m-fluorophenyl)-2-hydroxyethylamino]-3-methylbutyl} cyclohexanecarboxylic acid]
L6-myotubes [1]; [3]
  Emax at 10 µM: < 25%
L6-myotubes [2]; [4]
  Emax at 10 µM: < 25%

## O[C@@H](CNCC[C@H]1CC[C@@H](O)CC1)c1cccc(F)c1 [Compound 297, (R)-1-(m-fluorophenyl)-2-{2-[(1s,4S)-4-hydroxycyclohexyl]ethylamino}-1-ethanol]
L6-myotubes [1]; [3]
  Emax at 10 µM: < 25%
L6-myotubes [2]; [4]
  Emax at 10 µM: 50 to 75%
